Source: patent publication US7763708B2, “Methods and compositions for modulating C5-a-mediated inflammatory responses” (Institute for Protein Science Co., Ltd., priority 2004, dated 2010)
Values joined by “and” are separate entries in the source; they are usually repeats but may differ in a detail not shown here. Equal entries are not always repeated. “Also recorded” adds a separate entry of the source. Ends that are not written are not given here.

Legend:
[1] = test system: TGW human neuroblastoma cells bearing C5aR; test: Patch clamp measurement of inward ion current pulses induced by PL37-MAP; type: cell-based; settings: 500 nM PL37-MAP
Protocol: The measurements were carried out on TGW human neuroblastoma cells bearing C5aR. Cells were voltage-clamped at room temperature at a holding potential of −70 mV using a whole cell clamp configuration. The instruments used for electrophysiology were as follows: an Axopatch 200-A patch clamp amplifier, a Digidata-1200 data acquisition system and pCLAMP 6.02 software from Axon Instruments Inc., (Foster City, Calif.). The head stage of the amplifier was fitted to an MHW-3 hydraulic manipulator manufactured by Narishige Inc. (Tokyo, Japan); and the cells were visualized using an Olympus IMT-2 invert microscope. Data acquisition and analysis were performed using an IBM compatible personal computer. Patch electrodes (OD=1.5 mm, thin wall, Garner Glass Co., Claremont, Calif.) were pulled with a PP-83 puller and polished with an MF-83 microforge (Narishige Inc). The resistance of patch electrodes was 8-10 MΩ. The solutions used were as follows: an extracellular solution (10 mM Hepes, 140 mM NaCl, 5 mM KCI, 2 mM CaCl2, 2 mM MgCl2, 10 mM glucose, pH=7.34) and an intracellular pipette solution (10 mM Hepes, 110 mM KCl, 15 mM NaCl, 0.1 mM CaCl2, 2 mM MgCl2, 1 mM EGTA, pH 7.25). […]
Inward calcium current pulses detected by a patch clamp assay were evoked when TGW cells were exposed to 500 nM PL37-MAP (FIG. 2a). […]

[2] = target: PL37-MAP (Homo sapiens, UniProt P01031); test: Surface plasmon resonance (Biacore) binding of C-peptides to immobilized PL37-MAP; settings: PBS, 25° C., 10 μl/min, EA-blocked cell subtracted
Protocol: (§1) Binding interactions between PL37 or C5a with C-peptides were evaluated using surface plasmon resonance (SPR) technology with the Biacore system. PL37 and C5a were covalently immobilized on the CM5 sensor chip by amine coupling methods using N-ethyl-N-(dimethylaminopropyl)carbodiimide/N-hydroxysuccinimide (EDC/NHS) according to the manufacturer's instructions. We activated the surface of the CM5 sensor chip with EDC/NHS for 20 min before injection with PL37-MAP (200 μg/ml in 10 mM sodium carbonate buffer, pH 8.5, over flow cell 2) or C5a (100 μg/ml in 10 mM acetate buffer, pH 5, over flow cell 3). Afterwards, excess NHS was deactivated for 20 min with 1 M ethanolamine hydrochloride (EA), pH 8.5. The reference flow cell was activated with EDC/NHS, and blocked with EA. Coupling was performed at a flow rate of 5 μl/min at 25° C. in PBS. Analyte (30 μl of C-peptide A or B) was injected at 10 μl/min at 25° C. in PBS. Binding interactions were determined by passing samples simultaneously over both the EA-blocked cell and the flow cell with immobilized PL37 or C5a so as to obtain units of resonance response (RU) by subtraction of the background using Biacore software (BIA evaluation).
The Biacore instrument which uses SPR technology measures association and dissociation in real time of an unlabeled analyte with an immobilized ligand. […]

[3] = target: T1, C5a (Homo sapiens, UniProt P01031); test: Surface plasmon resonance (Biacore) binding of C-peptides to immobilized C5a; design: Complement anaphylatoxin C5a is a 74-amino acid peptide generated from the fifth component of complement (C5); settings: PBS, 25° C., 10 μl/min, EA-blocked cell subtracted
T1 sequence (P01031 678-751 limits assumed): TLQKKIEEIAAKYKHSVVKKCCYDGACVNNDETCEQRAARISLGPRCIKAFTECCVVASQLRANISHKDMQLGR
Protocol: as §1
Binding of C-peptides to C5a was also examined. C5a was covalently coupled to a CM5 sensor chip resulting in a net increase of 5,770 RU. […]

[4] = test system: Rat Lethal Shock Model (C5a-mediated); test: Rat lethal shock induced by anti-Crry antibody following LPS priming; type: in vivo
Protocol: Administration of anti-rat Crry mAb (5I2) (Takizawa et al., J. Immunol. 152:3032, 1994) induces lethal shock in rats primed with a trace amount of lipopolysaccharide (LPS) (Matsuo et al., J. Exp. Med. 180:1619, 1994; Mizuno et al., J. Immunol. 162:5477, 1999). With this model, all rats sensitized with 0.05 mg/kg of LPS died within 30 min of injection of mAb 512. Male Wistar rats weighing about 250 g were purchased from Chubu Kagaku Shizai (Nagoya, Japan) and were allowed free access to food and water. Each rat was injected with 0.05 mg/kg of LPS, prepared from a phenol extraction of Salmonella typhosa (Sigma Chemical Co., St. Louis, Mo.) in 250 μl saline. Then, 0.75 mg/kg of 5I2 was administered 20 h later. Ten minutes before the injection of 5I2, saline or C-peptides in saline were injected. All injections were intravenously administered through the tail vein. Animal experiments were carried out according to Nagoya City University Guideline for the Care and Use of Experimental Animals and approved by the Nagoya City University Graduate School of Medical Sciences Animal Care Committee.
Administration of 0.75 mg/kg anti-rat Crry monoclonal antibody (Takizawa et al., J. Immunol. 152:3032, 1994) induces rapid lethal shock in rats primed with 0.05 mg/kg of LPS 20 h earlier (Matsuo et al., J. Exp. Med. 180:1619, 1994; Mizuno et al., J. Immunol. 162:5477, 1999). […] In order to investigate the inhibitory effect of the C-peptides in this model, we injected rats with saline (for the control) or C-peptides in 250 μl of saline 10 min before the 5I2 injection. All rats injected with saline died within 30 min (Table 1). However, all rats injected with 4 mg/kg of Pep-A survived. […] Some of the surviving rats stopped breathing briefly in the first 1 or 2 min after injection of 5I2, but were soon breathing again and about 20-40 min later began moving.

[5] = target: T1, C5a; test: Intracellular Ca++ mobilization in neutrophils triggered by C5a (calcium imaging); type: cell-based
Protocol: Neutrophils were isolated from fresh human blood with 0.2% EDTA as an anticoagulant. Whole blood was collected from a healthy volunteer (a collaborator of this study) via vein puncture. A 2.4 ml aliquot of blood was then layered onto 2 ml Mono-Poly Resolving Medium (Dainihon Seiyaku, Tokyo, Japan) in a centrifuge tube and centrifuged at 400 g for 20 min at room temperature. The polymorphonuclear leukocytes (neutrophils) were then harvested and the cell fraction was washed with Hanks' balanced salt solution (HBSS).
The isolated neutrophils were loaded with 2 μM Fura-2/AM (Molecular Probes, Eugene, Oreg.) mixed with 0.02% Pluronic F-127 (Molecular Probes) and 0.2% DMSO in HBSS for 40 min at 37° C. The suspension was agitated to prevent sedimentation. After loading, the cells were washed with HBSS twice and suspended in HBSS containing 0.3% BSA (HBSS/BSA). Approximately 1×10^6 cells in 900 μl HBSS/BSA were added to a poly-L-lysine-coated 35 mm Petri dish and allowed to attach to the bottom of the dish for 30 min. Changes in intracellular calcium concentrations in response to C5a or a mixture of peptides (C-peptides and C5a) were determined by monitoring the ratio of fluorescence light emission at 5I0 nm as a result of excitation at 340 and 380 nm at 37° C. using an ARGUS HiSCA calcium imaging system (Hamamatsu Photonics, Hamamatsu, Japan). The mixture of peptides and C5a was incubated in an Eppendorf tube on ice for 30 min in the HBSS solution and then applied to the cells after a 2 min baseline recording.
The effect of C-peptides on C5a function was analyzed by measuring Ca^++ mobilization using an ARUGUS HiSCA calcium imaging system. Administration of 0.7 nM recombinant human C5a (RhC5a) induced a transient increase in the level of intracellular Ca^++ of human neutrophils (FIG. 3a). The level of this activation was about 50% of the maximum achieved with higher concentrations of C5a. A mixture of C-peptide and C5a was incubated in an Eppendorf tube on ice for 30 min in the HBSS solution and then applied to the cells. […]

[6] = test system: skin reaction of rats; test: Skin reaction of rats: Evans Blue exudation after intradermal 5I2 (anti-Crry mAb); type: in vivo, rat
Protocol: Within one exemplary embodiment illustrating construction of useful C5a-modulatory peptide analogs and mimetics from a direct C5a complement peptide (or reference C5a-modulatory peptide sequence), an acetylated derivative of Pep-A (A-Pep-A) was constructed and tested for use within the methods and compositions of the invention. A-Pep-A is a peptide with the same sequence as that of Pep-A with acetylated alanine at the amino-terminal amino acid. Effect of A-Pep-A was tested on the lethal shock of mice induced by intravenous administration of CAWS (Candida albicans water soluble extract). […] ICR mice were injected with 4 mg/kg of A-Pep-A intraperitonally (i.p.) or intravenously (i.v.) 10 min before i.v. challenge with […] 100 μg CAWS. […] Effect of A-Pep-A was also evaluated on the skin reaction of rats. […]

[7] = test system: ICR mice; test: Lethal shock of mice induced by intravenous CAWS (Candida albicans water soluble extract); type: in vivo, mouse
Protocol: Within one exemplary embodiment illustrating construction of useful C5a-modulatory peptide analogs and mimetics from a direct C5a complement peptide (or reference C5a-modulatory peptide sequence), an acetylated derivative of Pep-A (A-Pep-A) was constructed and tested for use within the methods and compositions of the invention. A-Pep-A is a peptide with the same sequence as that of Pep-A with acetylated alanine at the amino-terminal amino acid. Effect of A-Pep-A was tested on the lethal shock of mice induced by intravenous administration of CAWS (Candida albicans water soluble extract). […] ICR mice were injected with 4 mg/kg of A-Pep-A intraperitonally (i.p.) or intravenously (i.v.) 10 min before i.v. challenge with […] 100 μg CAWS. […] Effect of A-Pep-A was also evaluated on the skin reaction of rats. As an indicator dye of vascular exudation, rats were i.v. injected with 0.5 ml of Evans Blue (8 mg/ml in saline) 30 min before intradermal (i.d.) injection of 5 μg 512 (anti-Crry monoclonal antibody) together with Pep-A, A-Pep-A of saline control).

[8] = 4 mg/kg i.v. 10 min before anti-Crry mAb

In the case of ASTAPARAGLPRLPKFF [Pep-B], the “Inhibition of inward ion current pulse evoked by PL37-MAP” value ([1]; 50 μM C-peptide) is reported as “did not have any effect; also recorded: did not block”, the “Binding to PL37-MAP-coupled flow cell” value [2] is reported as “did not” and the “Binding to C5a-coupled flow cell” value [3] is reported as “did not”. The “Survival rate (%)” value [4, 8] was 0%, the “Surviving/total number of rats” value [4, 8] was “died and 0/4” and the “Inhibition of C5a-triggered Ca++ mobilization” value ([5]; 0.7 nM C5a, 70 nM C-peptide, human neutrophils) was “failed to cause inhibition; also recorded: no inhibition”. For the same substance, the “Inhibition of C5a-triggered Ca++ mobilization” value ([5]; 0.7 nM C5a, 700 nM C-peptide, human neutrophils) was “failed to cause inhibition; also recorded: no inhibition”.
“A-Pep-A: Peptide with the same sequence as Pep-A with acetylated alanine at the amino-terminal amino acid (Ac-ASGAPAPGPAGPLRPMF)” was tested, and the “Blue spots at 2 h” value ([6]; 5I2 2.5 μg + peptide 40 μg i.d., spots measured from reverse side of removed skin) was 3 +/− 1, the “Inhibition of dye exudation / skin inflammation” value ([6]; summary of Table 3) was “suppressed the dye exudation” and the Dead/total ([7]; 4 mg/kg i.p., CAWS 100 μg/mouse) was 3/3. For the same substance, the Dead/total ([7]; 4 mg/kg i.p., CAWS 200 μg/mouse) was 3/3, the Dead/total ([7]; 4 mg/kg i.v., CAWS 100 μg/mouse) was “rescued half of mice” and the Dead/total ([7]; 4 mg/kg i.v., CAWS 100 μg/mouse, listed as A-PepA) was 2/4. For the same substance, the Dead/total ([7]; 4 mg/kg i.v., CAWS 200 μg/mouse) was 3/3 and the “Inhibition of C5a-triggered Ca++ mobilization” value ([5]; 1 nM C5a, 350 nM peptide, human neutrophils (FIG. 5)) was “completely inhibited; also recorded: much stronger effect than Pep-A”.
With “ASGAPAPGPAGPLRPMF [Pep-A, ASGAPAPGPAGPLRPMF]” the “Time in which peptide had been degraded in vivo” value ([4]; rat, inferred from loss of effect at 30 min pre-dosing) was at most 30 min and the “Harmful / side effects of the peptide in rats” value ([4]; rats injected with Pep-A (LPS sensitized, without anti-Crry mAb)) was “survived with no harmful effect; also recorded: without any noticeable deleterious side effects”.
“PL37-MAP: PL37 (C5a fragment aa 37-53, RAARISLGPRCIKAFTE, SEQ ID NO: 2) in multiple antigenic peptide form (also: multiple antigenic peptide form on lysine core) [reference compound]” was tested, and the “Amplitude of induced inward current pulses” value [1] was 500 pA.
